Values quoted from earlier work as cited in patent US20220259114A1, “Microbe-Based Compositions for Restoring Soil Health and Controlling Pests” (Locus Agriculture IP Company, LLC, priority 2019, published 2022).
*1 amine or outer side, *2 acyl side, *3 side chain or, on linkers, in order; H or OH if unused. Where a SMILES comes first, the peptide text is derived from it. Bridges are numbered along the chain shown (N, C = ends). [ ]: non-standard residue; d: D form. X1 = CC(C)CCCCCCCCC[C@H](CC(=O)[*:1])O[*:2]

How the values were obtained:
[1] = reduced from 72 mN/m; concentration as low as 0.005%
[2] = stated 'in one embodiment'; species and route not given
[3] = tested on: plant pathogens including bacteria, fungi, viruses and nematodes; conditions: in most cases does not exceed

surface tension of water after reduction [1] [mN/m] | Compound | toxic dose [2] | effective SLP concentration for biopesticide activity, in most cases [3] [mg/L]
27 | CC(C)CCCCCCCCC[C@@H]1CC(=O)N[C@@H](CCC(=O)O)C(=O)N[C@@H](CC(C)C)C(=O)N[C@H](CC(C)C)C(=O)N[C@@H](C(C)C)C(=O)N[C@@H](CC(=O)O)C(=O)N[C@H](CC(C)C)C(=O)N[C@@H](CC(C)C)C(=O)O1 [Surfactin, surfactin] (EL[dL]VD[dL]L; linker N-C via X1) |  | 
 | sophorolipid [SLP] | > 375 mg/kg of body weight | ≤ 3
